“And” between values parts separate entries of the source, which are not always exact repeats. Equal entries are not always repeated.

The test system of this experiment is T. cruzi intracellular amastigotes in H9c2 cells. The experiment in a line: RoK combination assay with BNZ. Type of experiment: cell-based, Trypanosoma cruzi. The method, then:
The assay was performed following the same experimental procedure mentioned above in the RoK assay. The infected H9c2 cells were treated with final 10 and 50 μM concentrations of BNZ and DMSO before being dispensed into the plates containing the compounds. For the combination with 50 μM BNZ, two plates were incubated for 4 and 24 hours respectively before being fixed. For the combinations with 10 μM BNZ and with DMSO, four plates for each condition were incubated for 4, 24, 48 and 72 hours before being fixed.

As to `O=C(Cn1ccnc1[N+](=O)[O-])NCc1ccccc1` [BNDZ 10], the AM/CELL was 2.035 and 2.023 (combo BNDZ 10 with unnamed compound at Concentration 16.6667, time 4); 1.123 and 1.3558 (combo BNDZ 10 with unnamed compound at Concentration 16.6667, time 24); 0.3934 and 0.4677 (combo BNDZ 10 with unnamed compound at Concentration 16.6667, time 48); 0.5411 and 0.6092 (combo BNDZ 10 with unnamed compound at Concentration 16.6667, time 72); 1.931 and 1.78 (combo BNDZ 10 with unnamed compound at Concentration 50, time 4); 0.8406 and 1.092 (combo BNDZ 10 with unnamed compound at Concentration 50, time 24). The AM/CELL is 0.412 and 0.3872 (combo BNDZ 10 with unnamed compound at Concentration 50, time 48); 0.6445 and 0.5238 (combo BNDZ 10 with unnamed compound at Concentration 50, time 72).

The values are drawn from article PMC8318231, “Rate-of-Kill (RoK) assays to triage large compound sets for Chagas disease drug discovery: Application to GSK Chagas Box” (PLoS Neglected Tropical Diseases, 2021).
